Data as given in PubChem BioAssay AID1508610 (The Scripps Research Institute Molecular Screening Center, 2020).
Activity calls are given as the source filed them. No rule for the calls is given here.

These molecules were tested against G-protein coupled receptor 151 (Homo sapiens) (UniProt Q8TDV0) (assay: GPR151 activator potency, dose response, cell-based (AID 1508610)). Conditions: cell-based GPR151 activation reporter.
Sequence of G-protein coupled receptor 151 (Homo sapiens) (Q8TDV0 whole entry, looked up): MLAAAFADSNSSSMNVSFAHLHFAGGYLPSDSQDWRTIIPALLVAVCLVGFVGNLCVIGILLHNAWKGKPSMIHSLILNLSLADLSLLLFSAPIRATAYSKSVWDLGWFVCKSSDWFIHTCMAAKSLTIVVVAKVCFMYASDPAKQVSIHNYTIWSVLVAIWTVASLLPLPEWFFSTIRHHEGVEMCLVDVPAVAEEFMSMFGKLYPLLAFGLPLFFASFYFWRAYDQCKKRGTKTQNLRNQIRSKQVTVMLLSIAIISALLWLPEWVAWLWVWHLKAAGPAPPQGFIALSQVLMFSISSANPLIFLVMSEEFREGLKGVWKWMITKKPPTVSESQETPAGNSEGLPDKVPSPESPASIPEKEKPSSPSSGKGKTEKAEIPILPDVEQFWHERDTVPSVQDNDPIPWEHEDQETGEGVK

Compound	EC50
C=CCN1/C(=C\C=C2\C=Nc3ccc(Br)cc32)C=Cc2ccc(C)cc21	> 21.9 µM (inactive)
Cn1c(=O)c(=O)n(C)c2cc(S(=O)(=O)N3CCN(C(=O)c4ccco4)CC3)ccc21	> 28 µM (inactive)
CC1CC(=O)N(C)c2ccccc2S1 (configuration not stated)	> 28 µM (inactive)
O=C(O)c1cccc(NC(=O)c2ccc(Br)o2)c1	> 28 µM (inactive)
Cc1cccc(-c2cnc(C)nc2C2CCCN(C(=O)CN(C)C)C2)c1 (configuration not stated)	> 28 µM (inactive)
Cc1c(C(=O)Nc2cc(Sc3ccc(F)cc3)cc([N+](=O)[O-])c2)sc2ncn(Cc3ccccc3F)c(=O)c12	> 20.2 µM (inactive)
Nc1ncnc2c1ccn2[C@@H]1O[C@H](CO)[C@@H](O)[C@H]1O	3.11 µM
Cc1nn(C)cc1CN1CCOc2ccc(CN3CCc4ccccc4C3)cc2C1	> 28 µM (inactive)
CCOCCOC(=O)C1=C(C)Nc2ccc(C)cc2S1	> 28 µM (inactive)
COc1ccc(-c2ccc(C(=O)Nc3ccccc3)s2)cc1	> 27.9 µM (inactive)
COc1ccc(CCNC(=O)c2sc3nc(C)nc(N4CCCCC4)c3c2C)cc1OC	> 27.6 µM (inactive)
Cc1ccc(C(=O)Nc2ncc([N+](=O)[O-])s2)cc1	> 31.4 µM (inactive)
NN1C(=O)c2ccccc2NC1C1CC=CCC1 (configuration not stated)	> 28 µM (inactive)
O=c1c2ccccc2cnn1-c1nc2ccccc2[nH]1	> 29.9 µM (inactive)
COc1ccc(-c2csc(/C(C#N)=C/Nc3ccc(F)c([N+](=O)[O-])c3)n2)cc1OC	> 27.6 µM (inactive)
O=C(NCSc1ccncn1)c1ccccc1	> 41.2 µM (inactive)
O=C(Nc1ncc([N+](=O)[O-])s1)c1cccnc1	> 31.4 µM (inactive)
CCC(NS(=O)(=O)c1ccc(Cl)c([N+](=O)[O-])c1)C12CC3CC(CC(C3)C1)C2 (configuration not stated)	> 26.9 µM (inactive)
Cc1cccc(-n2ncc3c(Nc4ccc(F)cc4F)ncnc32)c1	> 26.9 µM (inactive)
CC(C)CC(=O)NCC1CCC2(CCN(Cc3ccccc3F)CC2)O1 (configuration not stated)	> 28 µM (inactive)
Cc1ccc(-n2nc3c(c2NC(=O)c2cccc(F)c2)CS(=O)C3)c(C)c1 (configuration not stated)	> 27.8 µM (inactive)
COc1cccc(/C=C/c2nc3ccccc3c(=O)[nH]2)c1O	> 32.3 µM (inactive)
CC(C)=CCN1CCN(Cc2sccc2C)CC1CCO (configuration not stated)	> 28 µM (inactive)
O=C(c1cccs1)N1CCN=C1SCc1cccc([N+](=O)[O-])c1	> 28 µM (inactive)
CC(=O)Oc1ccccc1N1C(=O)c2cccc([N+](=O)[O-])c2C1=O	> 35.6 µM (inactive)

Compound	EC50
CCOC(=O)C1CCC(CN(CC(C)C)S(=O)(=O)c2ccc([N+](=O)[O-])cc2)CC1 (configuration not stated)	> 23.7 µM (inactive)
COC(=O)c1ccc(CN2CCN(Cc3ccc(OC)c(C)c3)C(CCO)C2)cc1 (configuration not stated)	> 28 µM (inactive)
Cc1ccc(-c2c(Nc3ccc(Cl)cc3)c(=O)c2=O)cc1	> 28 µM (inactive)
CCOC(=O)c1sc(NC(=O)C2CC2)nc1C	> 28.6 µM (inactive)
COc1ccccc1OCC(=O)Nc1ccc(S(=O)(=O)NC(C)=O)cc1	> 28 µM (inactive)
Cc1ccc2nc(-c3ccccc3)[nH]c2c1	> 38.4 µM (inactive)
N#Cc1ccsc1NC(=O)/C=C/c1ccccc1	> 28.6 µM (inactive)
Clc1nc(NCc2ccccc2)c2ncn(-c3ccccc3)c2n1	> 28.1 µM (inactive)
Cc1ccc(/C(=N/NC(=O)Cc2ccccc2)C23CN4CN(CN(C4)C2)C3)cc1	> 28 µM (inactive)
COc1ccc(-c2ccc(C(=O)NCCO)s2)cc1	> 27.9 µM (inactive)
COc1ccc(-c2cn3cc(C(=O)O)ccc3n2)cc1	> 29.2 µM (inactive)
CC(C)CC(NC(=O)C(C)NC(=O)CNC(=O)C(NC=O)C(C)C)C(=O)NC(C)C(=O)NC(C(=O)NC(C(=O)NC(C(=O)NC(Cc1c[nH]c2ccccc12)C(=O)NC(CC(C)C)C(=O)NC(Cc1c[nH]c2ccccc12)C(=O)NC(CC(C)C)C(=O)NC(Cc1c[nH]c2ccccc12)C(=O)NC(CC(C)C)C(=O)NC(Cc1c[nH]c2ccccc12)C(=O)NCCO)C(C)C)C(C)C)C(C)C (configuration not stated)	0.97 µM
Fc1ccc(CSc2ncn[nH]2)cc1	> 50.7 µM (inactive)
CCOCC(=O)NC12CC3CC(CC(C3)C1)C2	> 44.2 µM (inactive)
CCN(CC)C(=O)Cn1cnc2sc(C(=O)Nc3cc(C)ccc3OC)c(C)c2c1=O	> 25.7 µM (inactive)
CCN1CCc2c(sc(NC(=O)c3ccc(S(=O)(=O)N4CCCC(C)C4)cc3)c2C(=O)OC)C1 (configuration not stated)	> 27.6 µM (inactive)
COc1ccc(-c2ccc(C(=O)Nc3ccc(NC(C)=O)cc3)s2)cn1	> 28.2 µM (inactive)
CCOC(=O)c1cc(C)n(CCc2ccccc2)c1C	> 39.1 µM (inactive)
O=C(O)CCCN=C1CCc2ccccc2N1	> 43.2 µM (inactive)
O=C(CN1C(=O)C(c2ccccc2)=NC12CCCC2)Nc1ccccc1	> 28 µM (inactive)
O=C(O)CCC(NCC(O)Cn1c2ccccc2c2ccccc21)C(=O)O (configuration not stated)	> 28.7 µM (inactive)
C/C(=C\c1ccccc1)C(=O)Nc1ccccc1C(=O)O	> 31.9 µM (inactive)
CCN(CC)c1ccc(NC(=O)/C=C\C(=O)O)cc1	> 28 µM (inactive)
NC(=O)c1ccsc1NC(=O)/C=C/c1ccccc1	> 26.7 µM (inactive)
Cc1nccc2[nH]c(=O)c(C(=O)NC3CCN(Cc4ccccc4)CC3)cc12	> 28 µM (inactive)

Compound	EC50
COC(=O)C(NC(=O)c1ccc(Br)cc1)c1ccccc1 (configuration not stated)	> 28 µM (inactive)
O=Cc1cccc(OCc2ccc(C(=O)O)cc2)c1	> 28 µM (inactive)
COc1ccc(-c2nc(Nc3ccc(C)c(Cl)c3)c3ccccc3n2)cc1OC	> 26.1 µM (inactive)
COc1ccc2[nH]c(C)c(CCNCc3ccc(OC(F)(F)F)cc3)c2c1	> 21.6 µM (inactive)
CC(C)NC(=O)CSc1nnc(-c2cccnc2)n1CCc1ccccc1	> 28 µM (inactive)
CC(=O)c1cccc(NC(=O)CC2S\C(=N/N=C/C=C/c3ccccc3)NC2=O)c1 (configuration not stated)	> 28 µM (inactive)
OCCC1CN(Cc2ccc3nonc3c2)CCN1Cc1ccc(F)c(F)c1 (configuration not stated)	> 28 µM (inactive)
COc1ccc(-c2cnn(-c3ccc(C(=O)O)cc3)c2)cc1	> 28 µM (inactive)
Fc1ccc(-c2cnc(N3CCC4(CC3)OCCO4)nc2)cc1	> 28 µM (inactive)
O=C(O)c1ccc(COc2ccc3c(c2)CCC3)o1	> 28 µM (inactive)
CC(NC(=O)c1ccco1)c1nnc2n1CCN(Cc1cccc(F)c1)CC2 (configuration not stated)	> 28 µM (inactive)
CC(=O)OC(C(=O)NCc1ccco1)c1ccncc1 (configuration not stated)	> 28 µM (inactive)
CCC[C@@H]1NC(=O)[C@@H]2C[C@H](NCc3cc(C)ccc3F)CN2C1=O	> 28 µM (inactive)
Cc1ccc(CCNS(=O)(=O)c2ccc3c(c2)OCCN3C)cc1	> 28 µM (inactive)
CCN1/C(=C/c2ccc3cc(C)ccc3[n+]2CC)Sc2ccc(-c3ccccc3)cc21	inactive
Cn1cccc1C(=O)OCC(=O)NC(=O)NCc1ccccc1	> 28.4 µM (inactive)
O=C(Nc1nc2ccccc2[nH]1)c1ccccc1Cl	> 28.9 µM (inactive)
CC(C)c1ccc2oc3nc(N)c(C(=O)O)cc3c(=O)c2c1	> 28 µM (inactive)
COc1ccc(/C=C/C(=O)Nc2ccccc2)cc1	> 32.6 µM (inactive)
COc1cc(Nc2ccnc(Nc3ccc(N4CCOCC4)cc3)n2)cc(OC)c1OC	> 28.2 µM (inactive)
Cc1ccc(Nc2ncnc3sc(C)c(C)c23)cc1F	> 31.6 µM (inactive)
O=C(NCCO)c1ccc(-c2ccc(N3CCOCC3)nc2)s1	> 27 µM (inactive)
COc1cc(C2CC(=O)Nc3cc(C)c(C)cc32)cc(OC)c1OC (configuration not stated)	> 26.6 µM (inactive)
O=C1N[C@@H](Cc2ccc(Cl)cc2)C(=O)N2CCN(C(=O)c3cc(Cl)cc(Cl)c3)C[C@H]12	> 28 µM (inactive)
O=c1oc(Nc2cccc(C(F)(F)F)c2)nc2ccccc12	> 28.4 µM (inactive)

Compound	EC50
CC1CCN(S(=O)(=O)c2ccc(NC(=O)CSc3nc4ccccc4o3)cc2)CC1	inactive
CCOC(=O)COc1ccc(/C=C2\C=C(c3ccc(Br)cc3)OC2=O)cc1OC	> 23.6 µM (inactive)
CN1CCN(C(=O)c2ccc(-c3nc4ccc(C(=O)NCCOc5ccccc5)cc4s3)cc2)CC1	> 28.1 µM (inactive)
COc1ccc(OCc2cc(C(=O)N(C)Cc3ccncn3)no2)c(Cl)c1	> 28 µM (inactive)
N#C/C(=C\c1c(Oc2ccc(Cl)cc2Cl)nc2ccccn2c1=O)C(N)=O	> 27.9 µM (inactive)
COc1ccc(-c2nnc3sc(NC(=O)C(C)C)nn23)cc1OC	> 28 µM (inactive)
Nc1cccc(-c2nc3ccc(N)cc3s2)c1	> 36 µM (inactive)
CCCCNC(=O)/C(=C/c1ccccc1)NC(=O)/C=C/c1ccco1	> 28 µM (inactive)
CC[C@@H](C(=O)C(C)[C@@H](O)[C@H](C)CCc1ccc(C)c(O)c1C(=O)O)C1OC(CC)(C2CC[C@](O)(CC)[C@H](C)O2)C[C@@H]1C (some centres not stated)	inactive
COc1cc(C2CC(=O)c3c([nH]c(C(=O)OCCSC)c3C)C2)cc(OC)c1OC (configuration not stated)	0.0014 µM
NC(=O)c1ccc(-c2ccc(N3CCOCC3)nc2)s1	> 25.9 µM (inactive)
Cn1cc(CCC(=O)NC2CCN(Cc3ccccc3)CC2)c2ccccc21	> 28 µM (inactive)
CCn1ccnc1CN1CCN(Cc2ccc(F)cc2)C(CCO)C1 (configuration not stated)	> 28 µM (inactive)
CCOC(=O)c1cc2c(c(CSc3nc4ccccc4c(=O)n3Cc3ccc4c(c3)OCO4)c1)OCOC2	> 21.4 µM (inactive)
C[C@H]1NC(=O)[C@H]2CN(C(=O)NCc3ccccc3)CCN2C1=O	> 28 µM (inactive)
CSc1nc2ccc(NC(=O)Cn3cnc4ccccc4c3=O)cc2s1	> 29.3 µM (inactive)
Cc1cnc(C)c(NC2CCCCNC2=O)n1 (configuration not stated)	> 28 µM (inactive)
O=C(Nc1cc(Cl)ccc1Cl)c1ccccc1O	> 34 µM (inactive)
Cc1ccc2c(c1)N(CC(=O)Nc1ccc(Cl)cc1)C(=O)C(C)O2 (configuration not stated)	> 28 µM (inactive)
COc1cccc(OC)c1C(=O)Nc1ccc(Br)cn1	> 28 µM (inactive)
CCCCCNC(=O)c1c(O)c2c([nH]c1=O)CCCC2	> 34.1 µM (inactive)
CCc1ccccc1NC(=S)N(CCc1ccc(OC)c(OC)c1)Cc1cccnc1	> 24.3 µM (inactive)
